Data as given in PMC10515590 (ACS Omega, 2023).
Values after ≈ are worked out from the molar mass of the structure shown. Like-named read-outs stand apart in the source and are kept apart here. Each block holds one compound with its values, some of them ahead of it.

Legend:
[1] = cited from earlier work
[2] = Shake flask solubility in pH 6.8 phosphate buffer; format: physicochemical
[3] = Powder dissolution, USP apparatus II; format: physicochemical; settings: pH 6.8
[4] = after oral administration; cited from earlier work
[5] = Pharmacokinetic study after oral administration; format: in vivo, BALB/c mice; settings: female, BALB/c, mouse, plasma, 30 mg/kg
[6] = first pKa, 24 for cocrystal coformers

Structure (SMILES): O=C(O)c1c(O)cccc1O [2,6-dihydroxybenzoic acid]
log P ([1]; coformers): 2.14

solubility at 4 h [2]: 0.687 mg/mL (≈ 5.05 mM) | solubility at 1 h [3]: 0.676 mg/mL (≈ 4.97 mM) | AUC(0-t) [5]: 36900 ng·h/mL | Cmax [5]: 7010 ± 187 ng/mL
Structure (SMILES): Oc1ncnc2[nH]ncc12 [ALO, 1H-pyrazolo[3,4-d]pyrimidine-4(2H)-one]
time within which the drug is metabolized [4]: ≤ 2 h | aqueous solubility [1]: 0.8 mg/mL (≈ 5.88 mM) | pKa [1, 6]: 10.1

Structure (SMILES): O=C(O)c1ccc(O)cc1O [2,4-dihydroxybenzoic acid]
pKa ([1]; second pKa, ref 24 for 2,4-dihydroxybenzoic acid): 8.5

Structure (SMILES): O=C(O)c1ccnc(C(=O)O)c1 [pyridine 2,4-dicarboxylic acid]
pKa [1, 6]: 2.15

Structure (SMILES): O=C(O)CCCC(=O)O [glutaric acid]
solubility of coformer ([1]; highly soluble coformers): 1600 mg/mL
